Our source for the IC50 values is patent publication US9073895B2 (Boehringer Ingelheim International GmbH, priority 2010, dated 2015).

For test [1], the system named is synthesis of LTB4 in human whole blood. The experiment in a line: Human whole blood LTB4 production inhibition assay. The conditions noted are these: heparinized human whole blood, calcimycin 20 μM, plasma LTB4; read-out: HuWB IC50. It counts as cell-based. In a few lines:
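Whole-blood cellular format, heparinized human donors: 15 min compound pretreatment, then 30 min calcimycin stimulation (20 μM final), both at 37° C. Low-speed centrifugation yields plasma, in which LTB4 is read by homogeneous time-resolved fluorescence immunoassay.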

The target of test [2] is T1, recombinant human FLAP protein (Homo sapiens, UniProt P20292).
T1 construct: made in house; host or cells: Sf9 insect cells (membrane fraction, 100,000 x g pellet)
T1 sequence (P20292 1-161): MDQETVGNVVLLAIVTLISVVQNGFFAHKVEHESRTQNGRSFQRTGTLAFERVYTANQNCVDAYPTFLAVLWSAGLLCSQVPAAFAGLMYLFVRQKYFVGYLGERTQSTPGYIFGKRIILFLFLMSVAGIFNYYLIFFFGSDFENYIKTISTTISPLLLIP
The experiment in a line: FLAP binding assay (SPA, displacement of [125I]L-691,831). Conditions: membranes of sf9 cells expressing human FLAP, [125I]L-691,831 probe; read-out: hFLAP binding IC50. The gist of the method: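 Membranes from sf9 cells expressing human FLAP (5 μg/well) were bound to WGA SPA beads (200 μg/well). Nonspecific binding was defined with 10 μM unlabelled L-691,831.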

As a reminder, the IC50 is the concentration needed to halve the response being measured. Take `Cc1nnnn1-c1ccc(NC(=O)C2(c3ccc(-c4cnc(N)nc4)cc3)CCOCC2)cc1` [Example 4, 4-[4-(2-aminopyrimidin-5-yl)phenyl]-N-[4-(5-methyl-1H-tetrazol-1-yl)phenyl]tetrahydro-2H-pyran-4-carboxamide]: the IC50 was 808 nM in test [1] and 38.5 nM in test [2].

With `Nc1ncc(-c2ccc(C3(C(=O)Nc4cccc(OCc5ccccc5)c4)CCOCC3)cc2)cn1` [Example 61, 4-[4-(2-aminopyrimidin-5-yl)phenyl]-N-[3-(benzyloxy)phenyl]tetrahydro-2H-pyran-4-carboxamide], the IC50 in test [1] was > 3000 nM; in test [2] it was 94 nM.

In the case of `Nc1ncc(-c2ccc(C3(C(=O)Nc4nc(-c5ccccc5)cs4)CCOCC3)cc2)cn1` [Example 20, 4-[4-(2-aminopyrimidin-5-yl)phenyl]-N-(4-phenyl-1,3-thiazol-2-yl)tetrahydro-2H-pyran-4-carboxamide], the IC50 was found to be 1340 nM in test [1] and 16 nM in test [2].

For the molecule `COc1cncc(-c2ccc(NC(=O)C3(c4ccc(-c5cnc(N)nc5)cc4)CCC3)nc2)c1` [Example 130, 1-[4-(2-aminopyrimidin-5-yl)phenyl]-N-(5'-methoxy-3,3'-bipyridin-6-yl)cyclobutanecarboxamide], the figures for the IC50 in test [1] and in test [2] were 224 nM and 1.52 nM, respectively.

Regarding `N#Cc1ccc(NC(=O)C2(c3ccc(-c4cnc(N)nc4)nc3)CCC2)cc1` [Example 98, 1-[6-(2-aminopyrimidin-5-yl)pyridin-3-yl]-N-(4-cyanophenyl)cyclobutane-carboxamide], the concentration for half-maximal inhibition (IC50) in test [1] was found to be 236 nM; in test [2], 12.2 nM.

Regarding `Nc1ncc(-c2ccc(C3(C(=O)Nc4cc5ccccc5cn4)CCOCC3)cc2)cn1` [Example 82, 4-[4-(2-aminopyrimidin-5-yl)phenyl]-N-(isoquinolin-3-yl)tetrahydro-2H-pyran-4-carboxamide], the IC50 in test [1] was 2780 nM; in test [2] it was 10.5 nM.

`CC(C)C(C)(C(=O)Nc1cccnc1)c1ccc(-c2cnc(N)nc2)cc1` (stereo not shown) [Example 184, 2-[4-(2-aminopyrimidin-5-yl)phenyl]-2,3-dimethyl-N-(pyridin-3-yl)butanamide]: the IC50 in test [1] came to 1470 nM; in test [2], 39 nM.

On to `Nc1ncc(-c2ccc(C3(C(=O)Nc4ccc(OCc5ccccc5)c(Cl)c4)CCOCC3)cc2)cn1` [Example 49, 4-[4-(2-aminopyrimidin-5-yl)phenyl]-N-[4-(benzyloxy)-3-chlorophenyl]tetrahydro-2H-pyran-4-carboxamide], for which the IC50 came out at 534 nM in test [1] and 27 nM in test [2].

In the case of `Cc1nc(-c2ccc(NC(=O)C3(c4ccc(-c5cnc(N)nc5)cc4)CCCCC3)cc2)cs1` [Example 120, 1-[4-(2-aminopyrimidin-5-yl)phenyl]-N-[4-(2-methyl-1,3-thiazol-4-yl)phenyl]cyclohexane-carboxamide], the IC50 in test [1] is 1270 nM; in test [2] it was 11.5 nM.

Consider `N=C(N)NC(=O)c1ccc(NC(=O)C2(c3ccc(-c4cnc(N)nc4)cc3)CCC2)nc1` [Example 108, 6-[({1-[4-(2-aminopyrimidin-5-yl)phenyl]cyclobutyl}carbonyl)amino]-N-carbamimidoylpyridine-3-carboxamide], for which the IC50 in test [1] is 1900 nM; in test [2], 2 nM.

In the case of `Nc1ncc(-c2ccc(C3(C(=O)Nc4ccc5cnccc5c4)CCOCC3)cc2)cn1` [Example 51, 4-[4-(2-aminopyrimidin-5-yl)phenyl]-N-(isoquinolin-6-yl)tetrahydro-2H-pyran-4-carboxamide], the IC50 in test [1] amounted to 1690 nM; in test [2] it was 18 nM.

In the case of `CC(C)C(C)(C(=O)Nc1ccc(Cl)cn1)c1ccc(-c2cnc(N)nc2)cc1` (stereo not shown) [Example 136, 2-[4-(2-aminopyrimidin-5-yl)phenyl]-N-(5-chloropyridin-2-yl)-2,3-dimethylbutanamide], the concentration for half-maximal inhibition (IC50) in test [1] is 4690 nM; in test [2], 10.3 nM.

With `Cc1csc(NC(=O)C2(c3ccc(-c4cnc(N)nc4)cc3)CCC2)n1` [Example 205, 1-[4-(2-aminopyrimidin-5-yl)phenyl]-N-(4-methyl-1,3-thiazol-2-yl)cyclobutanecarboxamide], the IC50 in test [1] was 922 nM; in test [2], 8.4 nM.

Take `Cc1nc(-c2ccc(NC(=O)C(c3ccc(-c4cnc(N)nc4)cc3)C(C)C)nc2)cs1` (stereo not shown) [Example 133, 2-[4-(2-aminopyrimidin-5-yl)phenyl]-3-methyl-N-[5-(2-methyl-1,3-thiazol-4-yl)pyridin-2-yl]butanamide]: the IC50 in test [1] was 4400 nM; in test [2], 9.4 nM.

As to `Cc1noc(-c2ccc(NC(=O)C3(c4ccc(-c5cnc(N)nc5)cc4)CCC3)nc2)n1` [Example 100, 1-[4-(2-aminopyrimidin-5-yl)phenyl]-N-[5-(3-methyl-1,2,4-oxadiazol-5-yl)pyridin-2-yl]cyclobutanecarboxamide], the half-inhibitory concentration (IC50) in test [1] was determined as 184 nM; in test [2], 1.85 nM.

For the molecule `CC(C)(C)OC(=O)N1CCc2cc(NC(=O)C3(c4ccc(-c5cnc(N)nc5)cc4)CCOCC3)ccc2C1` [Example 150, tert-butyl 6-[({4-[4-(2-aminopyrimidin-5-yl)phenyl]tetrahydro-2H-pyran-4-yl}carbonyl)amino]-3,4-dihydroisoquinolin-2(1H)-carboxylate], the IC50 in test [1] was 3590 nM; in test [2], 48 nM.

As to `Cc1nc(-c2ccc(NC(=O)C(C)(c3ccc(-c4cnc(N)nc4)cc3)C(C)C)cc2)cs1` (stereo not shown) [Example 117, 2-[4-(2-aminopyrimidin-5-yl)phenyl]-2,3-dimethyl-N-[4-(2-methyl-1,3-thiazol-4-yl)phenyl]butanamide], the results for the half-inhibitory concentration (IC50) in test [1] and in test [2] were 1530 nM and 9.3 nM, respectively.

In the case of `Cc1nc(-c2ccc(NC(=O)C3(c4ccc(-c5ccc(N)nc5)cc4)CCOCC3)nc2)cs1` [Example 191, 4-[4-(6-aminopyridin-3-yl)phenyl]-N-[5-(2-methyl-1,3-thiazol-4-yl)pyridin-2-yl]tetrahydro-2H-pyran-4-carboxamide], the results for the concentration for half-maximal inhibition (IC50) in test [1] and in test [2] were 1950 nM and 27.5 nM, respectively.

For the molecule `COc1ccc(-c2ccc(NC(=O)C3(c4ccc(-c5cnc6[nH]ccc6c5)cc4)CCOCC3)nc2)cn1` [Example 168, N-(6'-methoxy-3,3'-bipyridin-6-yl)-4-[4-(1H-pyrrolo[2,3-b]pyridin-5-yl)phenyl]tetrahydro-2H-pyran-4-carboxamide], the IC50 in test [1] worked out at 616 nM; in test [2], 7.95 nM.

For `N#Cc1ccc(NC(=O)C2(c3ccc(-c4cnc(N)nc4)nc3)CCC2)cc1Cl` [Example 91, 1-[6-(2-aminopyrimidin-5-yl)pyridin-3-yl]-N-(3-chloro-4-cyanophenyl)cyclobutane-carboxamide], the figures for the half-inhibitory concentration (IC50) in test [1] and in test [2] were 240 nM and 5.45 nM, respectively.

As to `CC(C)(C(=O)Nc1ccccn1)c1ccc(-c2cnc(N)nc2)cc1` [Example 158, 2-[4-(2-aminopyrimidin-5-yl)phenyl]-2-methyl-N-(pyridin-2-yl)propanamide], the IC50 in test [1] stood at 5270 nM; in test [2] it was 36 nM.

For the molecule `Nc1ncc(-c2ccc(C3(C(=O)Nc4ccc(N5CCOCC5)cc4)CCOCC3)cc2)cn1` [Example 147, 4-[4-(2-aminopyrimidin-5-yl)phenyl]-N-[4-(mopholin-4-yl)phenyl]tetrahydro-2H-pyran-4-carboxamide], the IC50 in test [1] amounted to 2900 nM; in test [2] it was 490 nM.

Regarding `COc1cncc(-c2ccc(C(C)(C(=O)Nc3ccc(C)nn3)C(C)C)cc2)c1` (stereo not shown) [Example 114], the 50% inhibitory concentration (IC50) is > 20000 nM in test [1] and 290 nM in test [2].

`COC(=O)c1ccc(NC(=O)C2(c3ccc(-c4cnc(N)nc4)cc3)CCC2)nc1` [Example 95, methyl 6-[({1-[4-(2-aminopyrimidin-5-yl)phenyl]cyclobuyl}carbonyl)amino]pyridine-3-carboxylate]: the IC50 is 202 nM in test [1] and 2.35 nM in test [2].

As to `Nc1ncc(-c2ccc(C3(C(=O)Nc4cc(Cl)cc(Cl)c4)CCOCC3)cc2)cn1` [Example 15, 4-[4-(2-aminopyrimidin-5-yl)phenyl]-N-(3,5-dichlorophenyl)tetrahydro-2H-pyran-4-carboxamide], the IC50 in test [1] was > 3000 nM; in test [2] it was 23.5 nM.

On to `Nc1ncc(-c2ccc(C3(C(=O)Nc4ccc(-c5cscn5)cn4)CCOCC3)cc2)cn1` [Example 143, 4-[4-(2-aminopyrimidin-5-yl)phenyl]-N-[5-(1,3-thiazol-4-yl)pyridin-2-yl]tetrahydro-2H-pyran-4-carboxamide], for which the IC50 in test [1] turned out to be 646 nM; in test [2], 17.1 nM.

Turning to `Nc1ncc(-c2ccc(C3(C(=O)Nc4nc5ccccc5s4)CCOCC3)cc2)cn1` [Example 55, 4-[4-(2-aminopyrimidin-5-yl)phenyl]-N-(1,3-benzothiazol-2-yl)tetrahydro-2H-pyran-4-carboxamide], the IC50 in test [1] was > 3000 nM; in test [2], 29 nM.

On to `Cn1ncnc1-c1ccc(NC(=O)C2(c3ccc(-c4cnc(N)nc4)cc3)CCC2)nc1` [Example 103, 1-[4-(2-aminopyrimidin-5-yl)phenyl]-N-[5-(1-methyl-1H-1,2,4-triazol-5-yl)pyridin-2-yl]cyclobutanecarboxamide], for which the values for the concentration for half-maximal inhibition (IC50) in test [1] and in test [2] were 102 nM and 4.1 nM, respectively.

On to `COc1ccc(Oc2ccccc2)cc1NC(=O)C1(c2ccc(-c3cnc(N)nc3)cc2)CCOCC1` [Example 76, 4-[4-(2-aminopyrimidin-5-yl)phenyl]-N-(2-methoxy-5-phenoxyphenyl)tetrahydro-2H-pyran-4-carboxamide], for which the IC50 in test [1] is > 3000 nM; in test [2], 52.5 nM.
